Consider 40 molecules from patent US20050197350A1, “Novel quinoline, tetrahydroquinazoline, and pyrimidine derivatives and methods of treatment related to the use thereof” (TAISHO PHARMACEUTICAL CO., LTD., priority 2003, published 2005).

This assay relates to MCH receptors. Put plainly: MCH receptor activity class (method not given).
The mark [1] stands for this setting: class 1-3 by percent of control at 10^-7 M or IC50.
Setting [2] is: class by percent of control at 10^-7 M or IC50.

Regarding `CCSc1ncccc1C(=O)NC[C@H]1CC[C@@H](Nc2nc3c(c(N(C)C)n2)CCCC3)CC1` [compound 598], under setting [1], the class is 1 (Class 1: The value of percent of control at 10^−7 M was less than 40% or the value of IC50 was less than 50 nM.).

`CN(C)c1nc(N[C@H]2CC[C@@H](CNC(=O)c3ccc(F)cc3)CC2)nc2c1CCCC2` [compound 599]: the class under setting [1] was 3 (Class 3 The value of percent of control at 10^−7 M was more than 60% or the value of IC50 was more than 200 nM.).

Regarding `CN(C)c1nc(N[C@H]2CC[C@@H](CNC(=O)c3cc(F)cc(C(F)(F)F)c3)CC2)nc2c1CCCC2` [compound 600], under setting [1], the class is recorded as 3 (Class 3 The value of percent of control at 10^−7 M was more than 60% or the value of IC50 was more than 200 nM.).

As to `CN(C)c1nc(N[C@H]2CC[C@@H](CNC(=O)c3cc(F)c(Cl)cc3Cl)CC2)nc2c1CCCC2` [compound 601], under setting [1], the class is recorded as 3 (Class 3 The value of percent of control at 10^−7 M was more than 60% or the value of IC50 was more than 200 nM.).

`CCCCCC(=O)NC[C@H]1CC[C@@H](Nc2nc3c(c(N(C)C)n2)CCCC3)CC1` [compound 602]: the class under setting [2] was 3 (Class 3 The value of percent of control at 10^−7 M was more than 60% or the value of IC50 was more than 200 nM.).

Regarding `CN(C)c1nc(N[C@H]2CC[C@@H](CNC(=O)c3ccc(I)cc3)CC2)nc2c1CCCC2` [compound 603], under setting [2], the class is 3 (Class 3 The value of percent of control at 10^−7 M was more than 60% or the value of IC50 was more than 200 nM.).

On to `CSc1ncccc1C(=O)NC[C@H]1CC[C@@H](Nc2nc3c(c(N(C)C)n2)CCCC3)CC1` [compound 604], for which the class under setting [2] is reported as 3 (Class 3 The value of percent of control at 10^−7 M was more than 60% or the value of IC50 was more than 200 nM.).

Take `Cc1ccc(C(=O)NC[C@H]2CC[C@@H](Nc3nc4c(c(N(C)C)n3)CCCC4)CC2)cc1[N+](=O)[O-]` [compound 605]: the class under setting [2] is 3 (Class 3 The value of percent of control at 10^−7 M was more than 60% or the value of IC50 was more than 200 nM.).

For the molecule `CN(C)c1nc(N[C@H]2CC[C@@H](CNC(=O)c3cccc([N+](=O)[O-])c3)CC2)nc2c1CCCC2` [compound 606], under setting [2], the class is given as 3 (Class 3 The value of percent of control at 10^−7 M was more than 60% or the value of IC50 was more than 200 nM.).

As to `CN(C)c1nc(N[C@H]2CC[C@@H](CNC(=O)Cc3ccccc3)CC2)nc2c1CCCC2` [compound 607], the class under setting [2] was 3 (Class 3 The value of percent of control at 10^−7 M was more than 60% or the value of IC50 was more than 200 nM.).

`CN(C)c1nc(N[C@H]2CC[C@@H](CNC(=O)C3C[C@H]3c3ccccc3)CC2)nc2c1CCCC2` (stereo partly shown) [compound 608]: the class under setting [2] was 3 (Class 3 The value of percent of control at 10^−7 M was more than 60% or the value of IC50 was more than 200 nM.).

In the case of `CN(C)c1nc(N[C@H]2CC[C@@H](CNC(=O)c3ccc4c(c3)OCO4)CC2)nc2c1CCCC2` [compound 609], the class under setting [2] was 3 (Class 3 The value of percent of control at 10^−7 M was more than 60% or the value of IC50 was more than 200 nM.).

Take `Cc1cccc(C(=O)NC[C@H]2CC[C@@H](Nc3nc4c(c(N(C)C)n3)CCCC4)CC2)c1` [compound 612]: the class under setting [2] is 3 (Class 3 The value of percent of control at 10^−7 M was more than 60% or the value of IC50 was more than 200 nM.).

As for `Cc1ccc(C(=O)NC[C@H]2CC[C@@H](Nc3nc4c(c(N(C)C)n3)CCCC4)CC2)cc1` [compound 613], the class under setting [2] is on record as 3 (Class 3 The value of percent of control at 10^−7 M was more than 60% or the value of IC50 was more than 200 nM.).

As for `CN(C)c1nc(N[C@H]2CC[C@@H](CNC(=O)c3cccs3)CC2)nc2c1CCCC2` [compound 614], the class under setting [2] is given as 3 (Class 3 The value of percent of control at 10^−7 M was more than 60% or the value of IC50 was more than 200 nM.).

With `CN(C)c1nc(N[C@H]2CC[C@@H](CNC(=O)Cc3cccs3)CC2)nc2c1CCCC2` [compound 615], the class under setting [2] is given as 3 (Class 3 The value of percent of control at 10^−7 M was more than 60% or the value of IC50 was more than 200 nM.).

On to `CN(C)c1nc(N[C@H]2CC[C@@H](CNC(=O)c3cccc(OC(F)(F)F)c3)CC2)nc2c1CCCC2` [compound 616], for which the class under setting [2] is 3 (Class 3 The value of percent of control at 10^−7 M was more than 60% or the value of IC50 was more than 200 nM.).

On to `CN(C)c1nc(N[C@H]2CC[C@@H](CNC(=O)OCc3ccccc3)CC2)nc2c1CCCC2` [compound 617], for which the class under setting [2] was 3 (Class 3 The value of percent of control at 10^−7 M was more than 60% or the value of IC50 was more than 200 nM.).

For `CN(C)c1nc(N[C@H]2CC[C@@H](CNC(=O)OCc3ccc([N+](=O)[O-])cc3)CC2)nc2c1CCCC2` [compound 618], the class under setting [2] is given as 3 (Class 3 The value of percent of control at 10^−7 M was more than 60% or the value of IC50 was more than 200 nM.).

Consider `Cc1cc(C(=O)NC[C@H]2CC[C@@H](Nc3nc4c(c(N(C)C)n3)CCCC4)CC2)ccc1Br` [compound 619], for which, under setting [2], the class is given as 3 (Class 3 The value of percent of control at 10^−7 M was more than 60% or the value of IC50 was more than 200 nM.).

Consider `CN(C)c1nc(N[C@H]2CC[C@@H](CNC(=O)c3cccc(I)c3)CC2)nc2c1CCCC2` [compound 620], for which the class under setting [2] is recorded as 3 (Class 3 The value of percent of control at 10^−7 M was more than 60% or the value of IC50 was more than 200 nM.).

On to `CN(C)c1nc(N[C@H]2CC[C@@H](CNC(=O)c3cccc(Cl)c3F)CC2)nc2c1CCCC2` [compound 621], for which, under setting [2], the class is on record as 3 (Class 3 The value of percent of control at 10^−7 M was more than 60% or the value of IC50 was more than 200 nM.).

With `Cc1ccc(C(=O)NC[C@H]2CC[C@@H](Nc3nc4c(c(N(C)C)n3)CCCC4)CC2)c(F)c1F` [compound 622], the class under setting [2] was 3 (Class 3 The value of percent of control at 10^−7 M was more than 60% or the value of IC50 was more than 200 nM.).

As for `CN(C)c1nc(N[C@H]2CC[C@@H](CNC(=O)c3ccc(F)cc3Cl)CC2)nc2c1CCCC2` [compound 623], the class under setting [2] is given as 3 (Class 3 The value of percent of control at 10^−7 M was more than 60% or the value of IC50 was more than 200 nM.).

For the molecule `CN(C)c1nc(N[C@H]2CC[C@@H](CNC(=O)c3ccc(F)c(Cl)c3F)CC2)nc2c1CCCC2` [compound 624], the class under setting [2] is listed as 3 (Class 3 The value of percent of control at 10^−7 M was more than 60% or the value of IC50 was more than 200 nM.).

`CN(C)c1nc(N[C@H]2CC[C@@H](CNC(=O)CSc3ccccc3)CC2)nc2c1CCCC2` [compound 625]: the class under setting [2] is reported as 3 (Class 3 The value of percent of control at 10^−7 M was more than 60% or the value of IC50 was more than 200 nM.).

In the case of `CN(C)c1nc(N[C@H]2CC[C@@H](CNC(=O)c3cccc(C(F)(F)F)c3F)CC2)nc2c1CCCC2` [compound 626], under setting [2], the class is 3 (Class 3 The value of percent of control at 10^−7 M was more than 60% or the value of IC50 was more than 200 nM.).

Take `CN(C)c1nc(N[C@H]2CC[C@@H](CNC(=O)c3cc(C(F)(F)F)ccc3F)CC2)nc2c1CCCC2` [compound 627]: the class under setting [2] is listed as 3 (Class 3 The value of percent of control at 10^−7 M was more than 60% or the value of IC50 was more than 200 nM.).

For the molecule `COc1cccc(CC(=O)NC[C@H]2CC[C@@H](Nc3nc4c(c(N(C)C)n3)CCCC4)CC2)c1` [compound 629], the class under setting [2] is listed as 3 (Class 3 The value of percent of control at 10^−7 M was more than 60% or the value of IC50 was more than 200 nM.).

As to `CN(C)c1nc(N[C@H]2CC[C@@H](CNC(=O)Cc3ccc(F)cc3)CC2)nc2c1CCCC2` [compound 630], under setting [2], the class is 3 (Class 3 The value of percent of control at 10^−7 M was more than 60% or the value of IC50 was more than 200 nM.).

Take `COc1ccc(CC(=O)NC[C@H]2CC[C@@H](Nc3nc4c(c(N(C)C)n3)CCCC4)CC2)cc1` [compound 631]: the class under setting [2] is listed as 1 (Class 1: The value of percent of control at 10^−7 M was less than 40% or the value of IC50 was less than 50 nM.).

In the case of `Cc1cc(C(=O)NC[C@H]2CC[C@@H](Nc3nc4c(c(N(C)C)n3)CCCC4)CC2)c(C(F)(F)F)o1` [compound 632], under setting [2], the class is given as 1 (Class 1: The value of percent of control at 10^−7 M was less than 40% or the value of IC50 was less than 50 nM.).

Consider `Cc1cc(C(=O)NC[C@H]2CC[C@@H](Nc3nc4c(c(N(C)C)n3)CCCC4)CC2)c(C)o1` [compound 633], for which the class under setting [2] is reported as 3 (Class 3 The value of percent of control at 10^−7 M was more than 60% or the value of IC50 was more than 200 nM.).

Turning to `CCOc1ccccc1C(=O)NC[C@H]1CC[C@@H](Nc2nc3c(c(N(C)C)n2)CCCC3)CC1` [compound 634], the class under setting [2] was 3 (Class 3 The value of percent of control at 10^−7 M was more than 60% or the value of IC50 was more than 200 nM.).

In the case of `CN(C)c1nc(N[C@H]2CC[C@@H](CNC(=O)c3ccc(F)c(Cl)c3)CC2)nc2c1CCCC2` [compound 635], the class under setting [2] is given as 3 (Class 3 The value of percent of control at 10^−7 M was more than 60% or the value of IC50 was more than 200 nM.).

Turning to `Cc1ccc(C(=O)NC[C@H]2CC[C@@H](Nc3nc4c(c(N(C)C)n3)CCCC4)CC2)cc1F` [compound 636], the class under setting [2] is on record as 3 (Class 3 The value of percent of control at 10^−7 M was more than 60% or the value of IC50 was more than 200 nM.).

For `CN(C)c1nc(N[C@H]2CC[C@@H](CNC(=O)CC3CCCC3)CC2)nc2c1CCCC2` [compound 637], the class under setting [2] is 3 (Class 3 The value of percent of control at 10^−7 M was more than 60% or the value of IC50 was more than 200 nM.).

In the case of `COc1cc(OC)cc(C(=O)NC[C@H]2CC[C@@H](Nc3nc4c(c(N(C)C)n3)CCCC4)CC2)c1` [compound 638], the class under setting [2] is 3 (Class 3 The value of percent of control at 10^−7 M was more than 60% or the value of IC50 was more than 200 nM.).

On to `CN(C)c1nc(N[C@H]2CC[C@@H](CNC(=O)c3ccc(C#N)cc3)CC2)nc2c1CCCC2` [compound 639], for which, under setting [2], the class is on record as 3 (Class 3 The value of percent of control at 10^−7 M was more than 60% or the value of IC50 was more than 200 nM.).

Regarding `CN(C)c1nc(N[C@H]2CC[C@@H](CNC(=O)c3cc(C(F)(F)F)cc(C(F)(F)F)c3)CC2)nc2c1CCCC2` [compound 640], the class under setting [2] is 3 (Class 3 The value of percent of control at 10^−7 M was more than 60% or the value of IC50 was more than 200 nM.).
